The nature of the data set: Benzyl alcohol as additive on nasal administration of cGMP PDE inhibitors. Format: in vivo.

Each structure is given as a SMILES string. Entries after “also recorded” stand apart in the source; their conditions may differ.

`OCc1ccccc1` [benzyl alcohol]: the “Ability to reduce or prevent the disadvantages occurring on nasal administration of cGMP PDE inhibitors” value was “unable to reduce or prevent the disadvantages; also recorded: unsuitable for overcoming the disadvantages” and the “Local irritation of the nasal mucosa” value was “led to local irritation of the nasal mucosa”.

The values are drawn from US6740306B2, “Imidazotriazinone-containing compositions for nasal administration” (Bayer Aktiengesellschaft, priority 2002, dated 2004).
